Reference: patent US20190134145A1, “METHOD FOR TREATING COGNITIVE DYSFUNCTION” (ARIZONA BOARD OF REGENTS ON BEHALF OF THE UNIVERSITY OF …, priority 2013, published 2019)

Experiments:
CHF mice [1] = assay: Ejection fraction by echocardiography in CHF mice; type: in vivo; conditions: systemic treatment 50 mcg/kg/hr subcutaneously
Method: Myocardial infarction and subsequent CHF was induced by ligation of the left coronary artery. By week 4 and week 8 post MI, CHF mice (n=15) had approximately 50 and 70% decline in ejection fraction as measured by echocardiography. For the object recognition SOR test at 8 weeks post MI, discrimination ratios were calculated from the time spent exploring the novel versus familiar object during the test phase. […] At 8 weeks post MI, a subgroup of CHF mice (n=6) and controls (n=4) were given 50 mcg/kg/hr Angiotensin (1-7) or saline subcutaneously for 4 weeks and then cognitive function was retested.
(§1) In addition, the invention provides a preclinical animal model of cardiovascular disease and congestive heart failure induced cognitive dysfunction. A total of 26, male C57B1/6J mice were randomly assigned to the control group or cardiovascular disease and congestive heart failure group. Myocardial infarction was induced by ligation of the left coronary artery. By week 4 and week 8 post MI, cardiovascular disease and congestive heart failure mice (n=15) had approximately 50 and 70% decline in ejection fraction as measured by echocardiography. Mice were tested for changes in spatial learning memory via the Morris water task and object recognition via the standard spontaneous object recognition (SOR) task at 4 and 8 weeks post MI. […]

CHF mice [2] = assay: Morris water maze task (spatial memory) in mice with congestive heart failure after myocardial infarction; type: in vivo; conditions: 50 mcg/kg/hr subcutaneously for 4 weeks from 8 weeks post MI, first day of testing
Method: Prior to MI, the controls and CHF mice groups performed similarly on the Morris water task. Myocardial infarction and subsequent CHF was induced by ligation of the left coronary artery. By week 4 and week 8 post MI, CHF mice had approximately 50 and 70% decline in ejection fraction as measured by echocardiography. […] Animals were tested over 4 days with 6 spatial trials per day.
as §1, with “MI. At 8 weeks post MI, a subgroup of cardiovascular disease and congestive heart failure mice (n=6) and the control mice (n=4) were given 50 mcg/kg/hr Angiotensin (1-7) or saline subcutaneously for 4 weeks and then cognitive function was retested.” for “MI.”

CHF mice [3] = assay: Spontaneous (novel) object recognition (SOR) test in mice with congestive heart failure after myocardial infarction; type: in vivo; conditions: CHF mice (n=6), 50 mcg/kg/hr subcutaneously from 8 weeks post MI, after 3 weeks of treatment; controls +0.25±0.2, CHF+saline −0.21±0.1
Method: Mice were 12 weeks post MI or sham surgery. Six mice were MI+Ang(1-7); three mice were MI+saline; and four mice were Sham+Ang (1-7). Alzet pumps with either Ang(1-7) or saline were implanted sq 3 weeks prior to NOR test. Novel object recognition test was performed 3 weeks post pump implant. Data shown are 1st 2 min of “test phase” DRatio=(t novel−t familiar)/(t novel+t familiar). A positive score indicates more time spent with the novel object, a negative score indicates more time spent with the familiar object, and a zero score indicates a null preference. *=p<0.05, #=p<0.05. ANOVA+posthoc Turkey test.
Myocardial infarction and subsequent CHF was induced by ligation of the left coronary artery. By week 4 and week 8 post MI, CHF mice (n=15) had approximately 50 and 70% decline in ejection fraction as measured by echocardiography. For the object recognition SOR test at 8 weeks post MI, discrimination ratios were calculated from the time spent exploring the novel versus familiar object during the test phase. […]
In addition, the invention provides a preclinical animal model of cardiovascular disease and congestive heart failure induced cognitive dysfunction. […] By week 4 and week 8 post MI, cardiovascular disease and congestive heart failure mice (n=15) had approximately 50 and 70% decline in ejection fraction as measured by echocardiography. […]

Paraventricular neurons = assay: Reactive oxygen species production (DHE/ethidium fluorescence) in neurons challenged with aldosterone; type: cell-based, SD rats; conditions: mean±SE
Method: Paraventricular neurons were isolated from 22 day old female SD rats, dissociated and cultured on round coverslips and maintained in HBSS media for at least 48 hours prior to visualization by confocal microscopy. All cells were pre-incubated in 10 nM ALDO for 48 hours and then 1.0 μM Ang-(1-7) or 1.0 μM Ang-(1-7)+10.0 μM […] for 2 hours prior to testing with acute 1.0 μM Aldo. To measure ROS, changes in the ethidium fluorescence were measured which is directly proportional to the oxidation of dihydroethidium (DHE) by ROS. The cells were loaded with DHE (20 μM) added to the cell culture media for 1 h and then placed in a chamber for microscopic visualization of fluorescence. One-way ANOVAs for the experimental groups response to acute Aldo was determined. After establishing a significant ANOVA, post-hoc analyses were performed with Tukey multiple comparison tests between pairs of mean change scores. All data are expressed as means±SE. Statistical significance was set at P<0.05. Perfusion with 1.0 μM ALDO increased ROS (D=113.4+28%) in the PVN neurons. […] Pre-incubation in Ang-(1-7)+[…], restored the ALDO increase in ROS (Delta=105.9+9%). Change in ROS production was standardized relative to control state prior to ALDO treatment during ACSF incubation. ANOVA followed by Tukey's post hoc test was used for statistical comparisons between control and ALDO treatment. […]

Molecule | Ejection fraction (CHF mice [1]) | Performance in Morris water maze task after treatment (CHF mice [2]) | SOR discrimination ratio (CHF mice [3]) | Change in ROS (D) on ALDO, relative to control state prior to ALDO treatment (Paraventricular neurons; PVN neurons pre-incubated 2 hours in 1.0 μM Ang-(1-7), then acute 1.0 μM ALDO) | Change in ROS (D) relative to control state prior to ALDO treatment (Paraventricular neurons; PVN neurons, perfusion with 1.0 μM ALDO, no Ang-(1-7) pre-incubation)
angiotensin-(1-7) (DRVYIHP; Angiotensin 1-7; UniProt P01019 25-31, looked up) [Ang-(1-7), endogenous peptide derived from Angiotensin II via ACE2] | not significantly impacted | significant improvement on object recognition memory on the first day of testing | +0.43±0.1 | 6.4+27% | –
C[C@]12CCC(=O)C=C1CC[C@@H]1[C@@H]2[C@@H](O)C[C@]2(C=O)[C@@H](C(=O)CO)CC[C@@H]12 [ALDO, Aldosterone, reference compound] | – | – | – | – | 113.4+28%
